# From paper PMC10175918 (Communications Biology, 2023)
# Like-named read-outs stand apart in the source and are kept apart here.
# Legend:
# Assay in all cases: TGFα-shedding assay-based GPCR screening with chimeric Gα subunit proteins
# Format in all cases: cell-based
# [1] = target: T1, 348 GPCRs (Homo sapiens, UniProt Q9Y271)
# T1 construct: expressed in transfected cells; host or cells: HEK293A
# T1 sequence (Q9Y271 1-337): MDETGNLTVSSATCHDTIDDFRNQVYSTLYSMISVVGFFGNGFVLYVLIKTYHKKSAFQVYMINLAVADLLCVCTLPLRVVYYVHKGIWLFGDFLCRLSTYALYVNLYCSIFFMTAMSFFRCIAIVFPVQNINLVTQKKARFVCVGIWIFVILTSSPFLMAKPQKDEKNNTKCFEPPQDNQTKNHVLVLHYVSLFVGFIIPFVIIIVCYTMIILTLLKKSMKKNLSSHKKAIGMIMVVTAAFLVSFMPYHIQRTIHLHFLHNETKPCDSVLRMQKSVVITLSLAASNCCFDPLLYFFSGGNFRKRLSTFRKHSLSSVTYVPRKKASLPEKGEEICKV
# [2] = target: T2, 348 GPCRs (Homo sapiens, UniProt P43116); settings: 10µM, Favipiravir 100μM
# T2 construct: expressed in transfected cells; host or cells: HEK293A
# T2 sequence (P43116 whole entry): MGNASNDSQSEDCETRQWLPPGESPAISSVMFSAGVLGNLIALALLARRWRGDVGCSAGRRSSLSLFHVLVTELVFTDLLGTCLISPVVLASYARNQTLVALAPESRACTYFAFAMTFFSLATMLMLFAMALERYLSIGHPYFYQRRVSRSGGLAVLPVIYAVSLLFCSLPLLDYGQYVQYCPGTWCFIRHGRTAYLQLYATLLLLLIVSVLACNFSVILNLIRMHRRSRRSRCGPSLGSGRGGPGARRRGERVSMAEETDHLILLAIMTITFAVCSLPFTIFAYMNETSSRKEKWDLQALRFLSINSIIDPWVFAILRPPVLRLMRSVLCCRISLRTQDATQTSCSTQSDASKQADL
# [3] = target: T3, 348 GPCRs (Homo sapiens, UniProt Q8NFJ6); settings: 10µM, Favipiravir 100μM
# T3 construct: expressed in transfected cells; host or cells: HEK293A
# T3 sequence (Q8NFJ6 whole entry): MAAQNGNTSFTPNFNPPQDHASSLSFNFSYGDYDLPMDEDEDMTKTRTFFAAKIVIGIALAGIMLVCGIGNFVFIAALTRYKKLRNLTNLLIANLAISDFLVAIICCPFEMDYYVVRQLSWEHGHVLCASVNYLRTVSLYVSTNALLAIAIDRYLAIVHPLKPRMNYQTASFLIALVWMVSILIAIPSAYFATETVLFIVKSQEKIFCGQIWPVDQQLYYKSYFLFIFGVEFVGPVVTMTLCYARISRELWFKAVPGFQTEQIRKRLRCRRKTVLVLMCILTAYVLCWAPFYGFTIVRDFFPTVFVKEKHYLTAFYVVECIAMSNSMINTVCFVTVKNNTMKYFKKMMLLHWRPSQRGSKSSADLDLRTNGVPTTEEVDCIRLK
# [4] = target: T4, 348 GPCRs (Homo sapiens, UniProt O75388); settings: 10µM, Favipiravir 100μM
# T4 construct: expressed in transfected cells; host or cells: HEK293A
# T4 sequence (O75388 whole entry): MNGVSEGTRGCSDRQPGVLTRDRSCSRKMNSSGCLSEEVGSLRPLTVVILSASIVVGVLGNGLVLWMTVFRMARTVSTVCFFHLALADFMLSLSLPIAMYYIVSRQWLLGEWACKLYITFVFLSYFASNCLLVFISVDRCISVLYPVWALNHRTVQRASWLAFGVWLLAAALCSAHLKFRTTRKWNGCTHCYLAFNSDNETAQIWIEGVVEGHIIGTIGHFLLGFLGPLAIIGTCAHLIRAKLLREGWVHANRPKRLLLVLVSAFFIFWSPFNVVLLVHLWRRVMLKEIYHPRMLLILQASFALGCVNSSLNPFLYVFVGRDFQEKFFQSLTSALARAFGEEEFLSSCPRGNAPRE
# [5] = target: T5, 348 GPCRs (Homo sapiens, UniProt Q5T848); settings: 10µM, Favipiravir 100μM
# T5 construct: expressed in transfected cells; host or cells: HEK293A
# T5 sequence (Q5T848 24-1215): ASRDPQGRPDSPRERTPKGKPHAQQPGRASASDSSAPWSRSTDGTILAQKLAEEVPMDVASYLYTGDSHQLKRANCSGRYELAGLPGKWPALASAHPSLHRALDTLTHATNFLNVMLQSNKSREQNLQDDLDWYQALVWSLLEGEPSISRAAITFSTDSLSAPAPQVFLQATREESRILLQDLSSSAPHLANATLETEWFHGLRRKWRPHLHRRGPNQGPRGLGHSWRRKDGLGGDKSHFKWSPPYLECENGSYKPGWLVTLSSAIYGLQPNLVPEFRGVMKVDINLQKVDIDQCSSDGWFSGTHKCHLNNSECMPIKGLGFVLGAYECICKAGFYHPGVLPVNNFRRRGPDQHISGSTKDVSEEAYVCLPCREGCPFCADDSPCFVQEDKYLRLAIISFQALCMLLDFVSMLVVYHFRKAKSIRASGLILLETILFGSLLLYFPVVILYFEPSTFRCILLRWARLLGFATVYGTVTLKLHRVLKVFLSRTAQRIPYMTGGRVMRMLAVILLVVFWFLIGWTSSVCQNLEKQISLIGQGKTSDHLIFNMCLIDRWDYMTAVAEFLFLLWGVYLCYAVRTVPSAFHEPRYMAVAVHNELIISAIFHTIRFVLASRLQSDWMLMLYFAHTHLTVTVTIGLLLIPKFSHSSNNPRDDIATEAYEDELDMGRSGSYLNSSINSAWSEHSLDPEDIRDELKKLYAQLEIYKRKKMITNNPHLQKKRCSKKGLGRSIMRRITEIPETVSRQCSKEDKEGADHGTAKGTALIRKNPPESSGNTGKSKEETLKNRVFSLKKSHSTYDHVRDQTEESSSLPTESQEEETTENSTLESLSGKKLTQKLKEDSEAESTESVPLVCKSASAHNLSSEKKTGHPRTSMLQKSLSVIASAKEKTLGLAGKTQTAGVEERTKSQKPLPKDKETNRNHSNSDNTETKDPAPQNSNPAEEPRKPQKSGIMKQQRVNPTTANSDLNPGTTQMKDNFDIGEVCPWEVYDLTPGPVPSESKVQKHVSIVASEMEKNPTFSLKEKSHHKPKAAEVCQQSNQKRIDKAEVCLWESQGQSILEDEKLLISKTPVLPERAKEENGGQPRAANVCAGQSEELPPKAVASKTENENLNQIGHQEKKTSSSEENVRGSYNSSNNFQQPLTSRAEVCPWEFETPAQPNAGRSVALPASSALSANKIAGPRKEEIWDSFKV
# [6] = target: T6, 348 GPCRs (Homo sapiens, UniProt Q9Y653)
# T6 construct: expressed in transfected cells; host or cells: HEK293A
# T6 sequence (Q9Y653 26-693): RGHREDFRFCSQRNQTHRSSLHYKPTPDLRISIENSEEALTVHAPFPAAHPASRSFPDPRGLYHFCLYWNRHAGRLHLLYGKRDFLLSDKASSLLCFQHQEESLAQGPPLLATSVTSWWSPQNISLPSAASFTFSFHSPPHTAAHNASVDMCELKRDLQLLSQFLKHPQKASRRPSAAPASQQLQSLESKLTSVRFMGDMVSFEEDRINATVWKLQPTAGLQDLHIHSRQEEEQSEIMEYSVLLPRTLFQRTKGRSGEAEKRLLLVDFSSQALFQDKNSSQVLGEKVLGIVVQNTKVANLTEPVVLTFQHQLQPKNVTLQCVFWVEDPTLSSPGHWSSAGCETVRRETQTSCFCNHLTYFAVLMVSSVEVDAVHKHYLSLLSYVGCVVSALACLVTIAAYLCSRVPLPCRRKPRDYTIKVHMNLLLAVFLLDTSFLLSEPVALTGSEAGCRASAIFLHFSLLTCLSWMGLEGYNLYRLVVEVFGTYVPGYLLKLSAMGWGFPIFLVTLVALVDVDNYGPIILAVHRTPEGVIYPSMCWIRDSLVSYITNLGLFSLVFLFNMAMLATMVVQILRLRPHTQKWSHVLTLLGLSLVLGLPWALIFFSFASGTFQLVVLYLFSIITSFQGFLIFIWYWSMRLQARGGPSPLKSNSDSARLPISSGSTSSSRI
# [7] = target: T7, 348 GPCRs (Homo sapiens, UniProt Q8N6U8); settings: 10µM, Favipiravir 100μM
# T7 construct: expressed in transfected cells; host or cells: HEK293A
# T7 sequence (Q8N6U8 whole entry): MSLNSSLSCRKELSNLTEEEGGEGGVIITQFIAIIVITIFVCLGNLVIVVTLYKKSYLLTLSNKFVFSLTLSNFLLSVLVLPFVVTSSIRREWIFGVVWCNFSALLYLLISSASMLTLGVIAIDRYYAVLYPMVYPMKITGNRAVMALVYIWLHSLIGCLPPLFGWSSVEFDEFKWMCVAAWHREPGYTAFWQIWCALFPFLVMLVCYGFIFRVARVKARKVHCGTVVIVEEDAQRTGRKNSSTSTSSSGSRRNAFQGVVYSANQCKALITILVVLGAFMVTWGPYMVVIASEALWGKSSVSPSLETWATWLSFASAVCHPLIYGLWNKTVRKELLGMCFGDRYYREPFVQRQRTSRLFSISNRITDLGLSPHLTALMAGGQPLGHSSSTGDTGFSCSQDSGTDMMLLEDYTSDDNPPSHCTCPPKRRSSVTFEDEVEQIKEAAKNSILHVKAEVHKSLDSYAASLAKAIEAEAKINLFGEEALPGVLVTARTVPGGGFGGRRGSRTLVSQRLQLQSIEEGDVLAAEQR
# [8] = target: T8, 348 GPCRs (Homo sapiens, UniProt P48546); settings: 10µM, Favipiravir 100μM
# T8 sequence (P48546 22-466): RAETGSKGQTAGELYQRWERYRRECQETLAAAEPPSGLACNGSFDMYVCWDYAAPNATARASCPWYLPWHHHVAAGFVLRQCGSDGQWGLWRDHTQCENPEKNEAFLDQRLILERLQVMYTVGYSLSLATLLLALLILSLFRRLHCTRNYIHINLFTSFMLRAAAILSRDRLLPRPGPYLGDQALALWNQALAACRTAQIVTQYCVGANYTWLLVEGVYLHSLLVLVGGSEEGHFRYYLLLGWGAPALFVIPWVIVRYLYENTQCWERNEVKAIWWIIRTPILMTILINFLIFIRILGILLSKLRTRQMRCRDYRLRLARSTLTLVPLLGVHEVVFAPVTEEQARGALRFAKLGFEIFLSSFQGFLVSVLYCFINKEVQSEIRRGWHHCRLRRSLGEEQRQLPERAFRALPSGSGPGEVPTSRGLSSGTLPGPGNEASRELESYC
# [9] = target: T9, 348 GPCRs (Homo sapiens, UniProt Q96LB0); settings: 10µM, Favipiravir 100μM
# T9 construct: expressed in transfected cells; host or cells: HEK293A
# T9 sequence (Q96LB0 whole entry): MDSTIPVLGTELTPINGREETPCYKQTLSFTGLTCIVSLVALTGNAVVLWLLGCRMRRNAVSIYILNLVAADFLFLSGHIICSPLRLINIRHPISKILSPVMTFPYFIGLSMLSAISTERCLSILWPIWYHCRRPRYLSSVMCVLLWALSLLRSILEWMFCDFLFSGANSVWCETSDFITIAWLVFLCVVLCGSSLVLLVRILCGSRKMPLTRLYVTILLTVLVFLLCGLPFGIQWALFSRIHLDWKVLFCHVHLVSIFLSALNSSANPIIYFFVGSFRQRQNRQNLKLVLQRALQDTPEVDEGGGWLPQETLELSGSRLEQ
# [10] = target: T10, 348 GPCRs (Homo sapiens, UniProt P29274); settings: ADORA2A (adenosine A2a receptor); 10µM, Favipiravir 100μM
# T10 construct: expressed in transfected cells; host or cells: HEK293A
# T10 sequence (P29274 whole entry): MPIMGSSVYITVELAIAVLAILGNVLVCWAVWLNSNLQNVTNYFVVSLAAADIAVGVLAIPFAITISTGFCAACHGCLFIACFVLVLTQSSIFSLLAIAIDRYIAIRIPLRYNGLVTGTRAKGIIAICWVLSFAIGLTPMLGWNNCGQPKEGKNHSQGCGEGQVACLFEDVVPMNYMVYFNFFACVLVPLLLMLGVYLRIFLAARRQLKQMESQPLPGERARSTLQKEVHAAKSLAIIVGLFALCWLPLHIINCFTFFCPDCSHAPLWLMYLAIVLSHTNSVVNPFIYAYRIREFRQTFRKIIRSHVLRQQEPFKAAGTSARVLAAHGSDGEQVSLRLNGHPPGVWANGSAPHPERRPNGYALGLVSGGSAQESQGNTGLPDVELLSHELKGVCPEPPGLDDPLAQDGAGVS
# [11] = GPCR CysLT1 (cysteinyl leukotriene receptor 1), read-out: % GPCR activation compared to TPA
# [12] = EP2 (prostaglandin E receptor 2), read-out: % GPCR activation compared to TPA
# [13] = PK2 (prokineticin receptor 2), read-out: % GPCR activation compared to TPA
# [14] = PROKR2 (prokineticin receptor 2), read-out: % GPCR activation compared to TPA
# [15] = GPR32 (G protein-coupled receptor 32), read-out: % GPCR activation compared to TPA
# [16] = GPR158 (G Protein-Coupled Receptor 158), read-out: % GPCR activation compared to TPA
# [17] = GPCR GPR56 (G protein-coupled receptor 56), read-out: % GPCR activation compared to TPA
# [18] = GPR161 (G protein-coupled receptor 161), read-out: % GPCR activation compared to TPA
# [19] = GIPR (gastric inhibitory polypeptide receptor), read-out: % GPCR activation compared to TPA
# [20] = MRGPRX3 (MAS-related GPR, member X3), read-out: % GPCR activation compared to TPA
# [21] = read-out: % GPCR activation compared to TPA, GPCR CysLT1 (cysteinyl leukotriene receptor 1)
# [22] = read-out: % GPCR activation compared to TPA, EP2 (prostaglandin E receptor 2)
# [23] = read-out: % GPCR activation compared to TPA, PK2 (prokineticin receptor 2)
# [24] = read-out: % GPCR activation compared to TPA, PROKR2 (prokineticin receptor 2)
# [25] = read-out: % GPCR activation compared to TPA, GPR32 (G protein-coupled receptor 32)
# [26] = read-out: % GPCR activation compared to TPA, GPR158 (G Protein-Coupled Receptor 158)
# [27] = read-out: % GPCR activation compared to TPA, GPCR GPR56 (G protein-coupled receptor 56)
# [28] = read-out: % GPCR activation compared to TPA, GPR161 (G protein-coupled receptor 161)
# [29] = read-out: % GPCR activation compared to TPA, GIPR (gastric inhibitory polypeptide receptor)
# [30] = read-out: % GPCR activation compared to TPA, MRGPRX3 (MAS-related GPR, member X3)
compound,measurement,setting,value
N#C[C@@]1(c2ccc3c(N)ncnn23)O[C@H](CO)[C@@H](O)[C@H]1O [GS441524],activation at 10 µM,[1]; [11],-1.14%
same,activation at 10 µM,[2]; [12],-0.304%
same,activation at 10 µM,[3]; [13],-2.39%
same,activation at 100 µM,[3]; [14],-1.59%
same,activation at 10 µM,[4]; [15],1.37%
same,activation at 10 µM,[5]; [16],0.213%
same,activation at 10 µM,[6]; [17],-3.73%
same,activation at 10 µM,[7]; [18],-1.6%
same,activation at 10 µM,[8]; [19],-3.77%
same,activation at 100 µM,[9]; [20],-0.726%
same,% GPCR activation compared to TPA,[10],1.631%
CC(C)OC(=O)[C@H](C)N[P@](=O)(OC[C@H]1O[C@@H](n2ccc(=O)[nH]c2=O)[C@](C)(F)[C@@H]1O)Oc1ccccc1 [sofosbuvir],activation at 10 µM,[1]; [21],-1.58%
same,activation at 10 µM,[2]; [22],-1.21%
same,activation at 10 µM,[3]; [23],-0.621%
same,activation at 100 µM,[3]; [24],-2.61%
same,activation at 10 µM,[4]; [25],-3.92%
same,activation at 10 µM,[5]; [26],3.31%
same,activation at 10 µM,[6]; [27],0.191%
same,activation at 10 µM,[7]; [28],-5.59%
same,activation at 10 µM,[8]; [29],-0.359%
same,activation at 100 µM,[9]; [30],0.522%
same,% GPCR activation compared to TPA,[10],-2.149%
CCC(CC)COC(=O)[C@H](C)N[P@](=O)(OC[C@H]1O[C@@](C#N)(c2ccc3c(N)ncnn23)[C@H](O)[C@@H]1O)Oc1ccccc1 [remdesivir],activation at 10 µM,[1]; [21],0.442%
same,activation at 10 µM,[2]; [22],1.83%
same,activation at 10 µM,[3]; [23],-3.23%
same,activation at 100 µM,[3]; [24],0.417%
same,activation at 10 µM,[4]; [25],1.78%
same,activation at 10 µM,[5]; [26],0.972%
same,activation at 10 µM,[6]; [27],-0.797%
same,activation at 10 µM,[7]; [28],-2.6%
same,activation at 10 µM,[8]; [29],-2.47%
same,activation at 100 µM,[9]; [30],-0.608%
same,% GPCR activation compared to TPA,[10],3.955%
CC(C)C(=O)OC[C@H]1O[C@@H](n2ccc(NO)nc2=O)[C@H](O)[C@@H]1O [molnupiravir],activation at 10 µM,[1]; [11],-1.72%
same,activation at 10 µM,[2]; [12],-0.705%
same,activation at 10 µM,[3]; [13],-5.79%
same,activation at 100 µM,[3]; [14],-1.79%
same,activation at 10 µM,[4]; [15],-4.1%
same,activation at 10 µM,[5]; [16],1.57%
same,activation at 10 µM,[6]; [17],-2.2%
same,activation at 10 µM,[7]; [18],-3.46%
same,activation at 10 µM,[8]; [19],1.42%
same,activation at 100 µM,[9]; [20],-1.5%
same,% GPCR activation compared to TPA,[10],-1.952%
"NC(=O)c1nc(F)cnc1O [favipiravir, 6-fluoro-3-hydroxy-2-pyrazinecarboxamide]",activation at 100 µM,"[1]; GPCR CysLT1 (cysteinyl leukotriene receptor 1), 100μM, read-out: % GPCR activation compared to TPA",-0.478%
same,activation at 10 µM,[2]; [12],0.965%
same,activation at 10 µM,[3]; [13],-4.29%
same,activation at 100 µM,[3]; [14],0.524%
same,activation at 10 µM,[4]; [15],0.0718%
same,activation at 10 µM,[5]; [16],2.24%
same,activation at 100 µM,"[6]; GPCR GPR56 (G protein-coupled receptor 56), 100μM, read-out: % GPCR activation compared to TPA",-0.74%
same,activation at 10 µM,[7]; [18],-0.46%
same,activation at 10 µM,[8]; [19],-1.79%
same,activation at 100 µM,[9]; [20],-0.33%
same,% GPCR activation compared to TPA,[10],2.3424%
